Results as given in US20200239398A1, “METHYLENE-CYCLOALKYLACETATE DERIVATIVES AND THEIR USE IN TREATMENT OF NEUROTROPIC CONDITIONS” (Yissum Research Development Company of The Hebrew …, priority 2018, published 2020).
Where two headings read alike, the source gives them in different places.

Experiments:
[1] = target: Dopamine Receptor D1 (DRD1) (Homo sapiens, UniProt P21728); test: SAFETYscan DRD1 cAMP; assay type: cell-based; settings: 10 μM HU-MCA-13
[2] = target: Cholecystokinin Receptor A (CCKAR) (Homo sapiens, UniProt P32238); test: SAFETYscan CCKAR Calcium Flux; assay type: cell-based; settings: 10 μM HU-MCA-13, read-out: Maximal Response
Cholecystokinin Receptor A (CCKAR), sequence (P32238 whole entry): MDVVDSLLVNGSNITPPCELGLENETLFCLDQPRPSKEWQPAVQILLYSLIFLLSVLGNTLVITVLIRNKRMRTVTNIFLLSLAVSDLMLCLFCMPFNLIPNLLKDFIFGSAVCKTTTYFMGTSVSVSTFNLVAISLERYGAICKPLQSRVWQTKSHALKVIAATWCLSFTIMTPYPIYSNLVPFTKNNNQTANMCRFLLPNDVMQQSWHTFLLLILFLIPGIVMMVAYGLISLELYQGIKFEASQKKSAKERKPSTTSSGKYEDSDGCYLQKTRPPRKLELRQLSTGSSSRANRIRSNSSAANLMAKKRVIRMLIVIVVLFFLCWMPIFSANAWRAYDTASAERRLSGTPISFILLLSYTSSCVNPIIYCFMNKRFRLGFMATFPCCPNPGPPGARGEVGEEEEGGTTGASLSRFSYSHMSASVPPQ

PC12 cells = test: Cytotoxicity (cell morphology, LDH release); assay type: cell-based; settings: 10 μM
male C57BL/6 mice = test: Acute tolerance in mice, single iv dose; assay type: in vivo
Description: (§1) This pilot study was conducted to obtain acute information of the dose toxicity of HU-MCA-13 (Compound 13 in Scheme 1) in male mice. Male C57BL/6 mice, were injected intravenously with 0.2 ml of HU-MCA-13 in a dose of 250 mg/kg. Mice were monitored for 4 consecutive weeks for autonomic and neurotoxicity symptoms. The mortality and changes on body weight, clinical signs, gross observation, were monitored up to 30 days after treatment. No mortality was found at this high dose of 250 mg/kg. […] The mice were examined once a week for autonomic symptoms by measuring salivation, urinary delivery, pupillary constriction, heart rate, blood pressure, and hair contraction. […] Occurrences of either flaccid or spastic paralysis of the legs were not observed. […] Furthermore, no mice sudden deaths occurred within 24 hours after the injection or during the 4 weeks of observation. […] Sensory motor tests were scored individually and according to the modified neurologic function severity score (mNSS). The data from each individual test and the total score calculated from individual tests that make up the mNSS were measured. The following assays were used: a. beam balance test—mice were placed on a 1-inch wide beam for 60 seconds. A normal response is balance with steady posture for 60 seconds (a score of 0). Deficits are scored if the rat: grasps the side of the beam (a score of 1), hugs the beam and one limb falls down from the beam (a score of 2), hugs the beam and two limbs fall off the beam (a score of 3), attempts to balance on the beam, but falls off from 60 seconds (a score of 4), attempts to balance on the beam but falls off from […], or falls off with no attempt to balance or hang on the beam in <20 seconds (a score of 6); b. foot fault test—forelimb movement dysfunction, while walking on elevated metal grids, was monitored. The animal was placed on horizontal grids (85.5×26.5×20) cm with a glass enclosure for observation. With each weight bearing step, the forelimb can fall or slip between the metal support bars, an event recorded as a foot fault. The total number of forelimb steps and the total number of foot faults were recorded. The percentage of forelimb foot faults to the total steps that occurred within 2 minutes marks the test results; c. hind limb placing test—This test monitors reposition of hind limbs placed down and away from the table edge. The ability to retrieve and place the hind limbs back onto the table was scored. Immediate and complete limb retrieval was scored 0, delayed (>2 seconds) limb retrieval and/or interspersed flailing was scored 1, and no limb retrieval was scored 2; d. Increasing platform angle to slide test—This test monitors the strength and stability of resistance to slide down an inclined platform. It deploys a clean wooden board (60 cm by 40 cm) positioned horizontally. Mice were placed on the board with head facing up the increasing incline. The board then swings to increase the degree of inclination the rat experiences until slipping down the board feet first. The degree of the angle at which the rat relinquishes their grip/stance on the board (slips down) constitute the test results; e. the forelimb whole body suspension test—The test measures grip strength by duration of suspension by forepaws. The rat is suspended on a metal bar (diameter 5 mm) which it tightly holds onto by its forelimbs. The time (seconds) during which each rat could sustain its body weight while holding onto the bar is recorded. The mice drop from the bar onto soft material with no harm. The test was repeated three times and a mean result per rat was used as the score. Cumulatively these sensory motor/neurological findings indicate acute tolerability of 250 mg/kg HU-MCA-13 iv injection in Male C57BL/6 mice.

[3] = Acute tolerance in mice, single iv dose; assay type: in vivo; settings: C57BL/6, mouse, in vivo; male mice; predicted from the 250 mg/kg iv study; read-out: LD50 after single dose
Description: as §1

[4] = target: Muscarinic acetylcholine Receptor M2 (CHRM2) (Homo sapiens, UniProt P08172); test: SAFETYscan CHRM2 cAMP; assay type: cell-based; settings: 10 μM HU-MCA-13, read-out: Maximal Response
Muscarinic acetylcholine Receptor M2 (CHRM2), sequence (P08172 whole entry): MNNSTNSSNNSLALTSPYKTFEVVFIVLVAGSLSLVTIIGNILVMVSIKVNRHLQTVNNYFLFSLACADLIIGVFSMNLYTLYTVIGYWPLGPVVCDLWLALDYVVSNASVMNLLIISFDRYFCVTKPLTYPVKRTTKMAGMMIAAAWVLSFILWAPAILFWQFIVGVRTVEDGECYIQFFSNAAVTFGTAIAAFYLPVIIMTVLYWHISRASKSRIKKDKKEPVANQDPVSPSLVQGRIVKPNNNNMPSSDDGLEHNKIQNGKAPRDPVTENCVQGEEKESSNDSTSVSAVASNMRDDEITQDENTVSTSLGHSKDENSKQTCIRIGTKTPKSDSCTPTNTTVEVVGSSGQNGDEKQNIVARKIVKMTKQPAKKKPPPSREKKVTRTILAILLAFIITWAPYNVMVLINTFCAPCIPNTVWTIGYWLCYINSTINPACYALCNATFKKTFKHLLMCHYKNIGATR

[5] = target: T1, Vascular endothelial growth factor receptor 2 (KDR tyrosine kinase) (VEGFR2) (Homo sapiens, UniProt P35968); test: SAFETYscan VEGFR2 kinase Binding; settings: Inhibitor mode, 10 μM HU-MCA-13, read-out: Maximal Response
T1 construct: DiscoverX (KINOMEscan)
T1 sequence (P35968 20-1356): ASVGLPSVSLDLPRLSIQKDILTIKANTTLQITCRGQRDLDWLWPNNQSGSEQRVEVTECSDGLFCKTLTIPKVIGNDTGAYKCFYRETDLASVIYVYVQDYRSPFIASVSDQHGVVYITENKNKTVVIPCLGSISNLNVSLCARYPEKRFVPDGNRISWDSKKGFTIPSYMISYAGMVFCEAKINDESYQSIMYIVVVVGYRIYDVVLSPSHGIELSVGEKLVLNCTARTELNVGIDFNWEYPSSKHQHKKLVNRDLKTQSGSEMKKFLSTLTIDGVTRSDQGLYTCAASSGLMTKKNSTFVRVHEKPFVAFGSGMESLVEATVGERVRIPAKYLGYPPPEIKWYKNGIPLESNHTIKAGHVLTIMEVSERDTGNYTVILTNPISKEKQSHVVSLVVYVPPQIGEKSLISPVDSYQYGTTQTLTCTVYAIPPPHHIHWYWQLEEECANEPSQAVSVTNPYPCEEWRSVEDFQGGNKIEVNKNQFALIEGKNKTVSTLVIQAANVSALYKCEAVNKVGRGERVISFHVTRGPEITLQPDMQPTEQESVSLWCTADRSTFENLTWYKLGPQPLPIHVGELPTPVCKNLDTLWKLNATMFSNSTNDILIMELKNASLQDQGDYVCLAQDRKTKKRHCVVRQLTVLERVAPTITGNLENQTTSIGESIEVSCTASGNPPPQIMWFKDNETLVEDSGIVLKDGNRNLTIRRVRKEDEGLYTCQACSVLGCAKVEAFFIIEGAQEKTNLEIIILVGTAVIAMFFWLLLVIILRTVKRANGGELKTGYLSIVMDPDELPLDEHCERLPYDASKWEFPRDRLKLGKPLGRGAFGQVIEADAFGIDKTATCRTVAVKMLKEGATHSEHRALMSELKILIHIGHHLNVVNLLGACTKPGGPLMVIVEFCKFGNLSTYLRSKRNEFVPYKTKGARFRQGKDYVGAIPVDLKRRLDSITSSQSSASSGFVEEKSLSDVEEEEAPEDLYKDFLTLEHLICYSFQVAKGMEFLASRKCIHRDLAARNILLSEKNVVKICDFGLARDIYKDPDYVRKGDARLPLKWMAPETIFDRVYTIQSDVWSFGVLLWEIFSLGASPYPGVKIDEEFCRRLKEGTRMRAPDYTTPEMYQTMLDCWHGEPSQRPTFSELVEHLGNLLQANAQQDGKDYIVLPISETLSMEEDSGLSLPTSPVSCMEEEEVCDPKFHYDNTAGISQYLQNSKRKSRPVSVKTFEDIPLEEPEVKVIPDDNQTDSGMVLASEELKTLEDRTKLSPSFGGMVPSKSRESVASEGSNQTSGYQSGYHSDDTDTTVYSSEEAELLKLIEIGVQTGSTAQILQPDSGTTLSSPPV

[6] = target: Dopamine Receptor D2 (DRD2S) (Homo sapiens, UniProt P14416); test: SAFETYscan DRD2S cAMP; assay type: cell-based; settings: 10 μM HU-MCA-13
Dopamine Receptor D2 (DRD2S), sequence (P14416 1-414 isoform P14416-2): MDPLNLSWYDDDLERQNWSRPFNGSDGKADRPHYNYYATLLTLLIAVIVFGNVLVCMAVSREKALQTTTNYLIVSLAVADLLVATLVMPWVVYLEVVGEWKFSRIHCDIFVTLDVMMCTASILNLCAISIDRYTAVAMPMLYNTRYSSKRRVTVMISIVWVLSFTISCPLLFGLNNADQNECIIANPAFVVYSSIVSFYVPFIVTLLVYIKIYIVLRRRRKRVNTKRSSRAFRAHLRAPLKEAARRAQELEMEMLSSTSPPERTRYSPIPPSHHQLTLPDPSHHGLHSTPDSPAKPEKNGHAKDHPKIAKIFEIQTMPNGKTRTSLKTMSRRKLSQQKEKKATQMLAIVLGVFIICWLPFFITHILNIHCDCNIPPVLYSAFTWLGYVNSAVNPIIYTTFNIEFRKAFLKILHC

[7] = read-out: Maximal Response, Agonist mode
[8] = read-out: Maximal Response, Antagonist mode
[9] = 250 mg/kg iv, same for 1% DMSO group

Dopamine Receptor D1 (DRD1), sequence (P21728 whole entry): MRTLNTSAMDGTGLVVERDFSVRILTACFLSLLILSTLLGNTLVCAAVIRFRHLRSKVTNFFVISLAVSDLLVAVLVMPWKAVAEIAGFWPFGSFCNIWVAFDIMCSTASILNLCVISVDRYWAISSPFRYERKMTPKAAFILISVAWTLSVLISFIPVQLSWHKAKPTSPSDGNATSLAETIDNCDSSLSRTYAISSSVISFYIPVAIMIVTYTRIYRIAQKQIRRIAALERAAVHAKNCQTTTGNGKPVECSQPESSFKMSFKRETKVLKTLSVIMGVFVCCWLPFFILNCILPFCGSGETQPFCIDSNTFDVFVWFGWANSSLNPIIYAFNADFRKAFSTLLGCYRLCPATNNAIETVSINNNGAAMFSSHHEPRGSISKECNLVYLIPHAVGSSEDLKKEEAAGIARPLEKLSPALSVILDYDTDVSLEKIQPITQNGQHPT

## C=CCC1CCC[C@@H](CCC(=O)O)C1=C (stereo partly drawn) [Compound 13]
[1]; [7]
  Emax: 0%
[1]; [8]
  Emax: 14.3%
[2]; Agonist mode
  Emax: 1.56%
[2]; Antagonist mode
  Emax: 0%
PC12 cells
  cytotoxicity (in words): not toxic to neurons
Male C57BL/6 mice; 250 mg/kg iv
  neurotoxicity signs (paralysis, motor activity, behavior): No paralysis, altered motor activity, or irregular behavior was observed
Male C57BL/6 mice; 250 mg/kg iv single dose, up to 30 days
  mortality: No mortality
Male C57BL/6 mice; 250 mg/kg iv vs 1% DMSO
  autonomic symptoms (salivation, urinary delivery, pupillary constriction, heart rate, blood pressure, hair contraction): no differences were observed
Male C57BL/6 mice; 250 mg/kg iv vs 1% DMSO treated group
  changes on body weight: No significant changes
Male C57BL/6 mice; [9]
  body weight at end: 27 gram
  body weight at start: 21 gram
Male C57BL/6 mice; within 24 hours after injection, 250 mg/kg iv
  cutaneous hematomas around the injection site or at distant locations: have not been observed
[3]
  LD50 at 30 days: > 2000 mg/kg
[4]; Agonist mode
  Emax: 11.7%
[4]; Antagonist mode
  Emax: 0%
[5]
  Emax: 21.7%
[6]; [7]
  Emax: 0%
[6]; [8]
  Emax: 0.51%
